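Values below derive from 48-hour exposures of cells grown in 96-well plates, with endpoints linearly interpolated between the two concentrations bracketing the appropriate inhibition level. The concentration for 50% growth inhibition is given as GI50.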 Activity calls are given as the source filed them. Rule as the data show it: active = GI50 up to about 1.1 µM and inactive = higher. Peptide text beside a SMILES is read from it. * marks the point of attachment. Boc = CC(C)(C)OC(=O)*; OBn = c1ccc(CO*)cc1
How the values were obtained:
Test in all cases: inhibition of tumour cell growth, NCI panel, 48 h
ACHN = system: ACHN
NCI-H23 = system: NCI-H23
OVCAR-8 = system: OVCAR-8
NCI-H522 = system: NCI-H522
EKVX = system: EKVX
MOLT-4 = system: MOLT-4
KM12 = system: KM12
SR = system: SR
HOP-92 = system: HOP-92
UACC-257 = system: UACC-257
SK-MEL-5 = system: SK-MEL-5
SF-295 = system: SF-295
HCT-116 = system: HCT-116
M14 = system: M14
HT-29 = system: HT-29
HL-60 = system: HL-60
RPMI-8226 = system: RPMI-8226
HCC 2998 = system: HCC 2998
SNB-19 = system: SNB-19
SW-620 = system: SW-620

| SMILES | GI50 (ACHN) | GI50 (NCI-H23) | GI50 (OVCAR-8) | GI50 (NCI-H522) | GI50 (EKVX) | GI50 (MOLT-4) | GI50 (KM12) | GI50 (SR) | GI50 (HOP-92) | GI50 (UACC-257) | GI50 (SK-MEL-5) | GI50 (SF-295) | GI50 (HCT-116) | GI50 (M14) | GI50 (HT-29) | GI50 (HL-60) | GI50 (RPMI-8226) | GI50 (HCC 2998) | GI50 (SNB-19) | GI50 (SW-620) |
| --- | --- | --- | --- | --- | --- | --- | --- | --- | --- | --- | --- | --- | --- | --- | --- | --- | --- | --- | --- | --- |
| COCCCNC(=O)C1=C(C)NC(C)=C(C(=O)NCCCOC)C1 | > 100 µM (inactive) | > 100 µM (inactive) | > 100 µM (inactive) | 9.23 µM (inactive) | 18.6 µM (inactive) | > 100 µM (inactive) | > 100 µM (inactive) | > 100 µM (inactive) | 89.3 µM (inactive) | > 100 µM (inactive) | > 100 µM (inactive) | > 100 µM (inactive) | > 100 µM (inactive) | > 100 µM (inactive) | > 100 µM (inactive) | > 100 µM (inactive) | > 100 µM (inactive) | > 100 µM (inactive) | > 100 µM (inactive) | > 100 µM (inactive) |
| C=C1C2CC[C@@](C)(O)C2[C@H]2OC(=O)C(=C)[C@@H]2C[C@H]1O (some centres not stated) | 10.8 µM (inactive) | 17.7 µM (inactive) | 22.3 µM (inactive) | 14.7 µM (inactive) | 29 µM (inactive) | 14.7 µM (inactive) | 19.7 µM (inactive) | 17.1 µM (inactive) | 27.5 µM (inactive) | 16.3 µM (inactive) | 8.38 µM (inactive) | 54.6 µM (inactive) | 27 µM (inactive) | 13.8 µM (inactive) | 16.1 µM (inactive) | 37.2 µM (inactive) | 13.1 µM (inactive) | 19.1 µM (inactive) | 48.6 µM (inactive) | 29.7 µM (inactive) |
| O=C(NCc1ccccc1Cl)c1c(O)c2ccccc2[nH]c1=O | > 10 µM (inactive) | > 100 µM (inactive) | 75 µM (inactive) | > 100 µM (inactive) | > 100 µM (inactive) | > 100 µM (inactive) | > 100 µM (inactive) | > 100 µM (inactive) | 27.9 µM (inactive) | > 100 µM (inactive) | 46.8 µM (inactive) | 33.4 µM (inactive) | 27.2 µM (inactive) |  | 54.5 µM (inactive) | > 100 µM (inactive) | 57.8 µM (inactive) | 33.3 µM (inactive) | 39.4 µM (inactive) | 24.9 µM (inactive) |
| CCCN(CCCN)/[N+]([O-])=N\O | > 100 µM (inactive) | > 100 µM (inactive) | > 100 µM (inactive) | > 100 µM (inactive) | 0.24 µM (active) | > 100 µM (inactive) | > 100 µM (inactive) | > 100 µM (inactive) | > 100 µM (inactive) | > 100 µM (inactive) | > 100 µM (inactive) | > 100 µM (inactive) | > 100 µM (inactive) | > 100 µM (inactive) | > 100 µM (inactive) | > 100 µM (inactive) | > 100 µM (inactive) | > 100 µM (inactive) | > 100 µM (inactive) | > 100 µM (inactive) |
| C=C1C(=O)OC2C1CCC(=C)C1CC(O)C(=C)C12 (configuration not stated) | 3.18 µM (inactive) | 18.7 µM (inactive) | 24.9 µM (inactive) | 2.58 µM (inactive) | 7.16 µM (inactive) | 8.38 µM (inactive) | 13.7 µM (inactive) | 3.22 µM (inactive) | 3.21 µM (inactive) | 12.9 µM (inactive) | 14.3 µM (inactive) | 38.5 µM (inactive) | 12.7 µM (inactive) | 17.5 µM (inactive) | 5.57 µM (inactive) | 1.82 µM (inactive) | 5.78 µM (inactive) | 14.3 µM (inactive) | 23.8 µM (inactive) | 16 µM (inactive) |
| O=C1c2ccccc2C(=O)c2sc(Nc3ccc([N+](=O)[O-])cc3)nc21 | 2.99 µM (inactive) | 2.67 µM (inactive) | 4.66 µM (inactive) | 2.55 µM (inactive) | 14.7 µM (inactive) | 1.92 µM (inactive) | 9.08 µM (inactive) | 2.63 µM (inactive) | 13.8 µM (inactive) | 4.9 µM (inactive) | 2.39 µM (inactive) | 11.8 µM (inactive) | 6.62 µM (inactive) | 2.54 µM (inactive) | 23.8 µM (inactive) | 0.984 µM (active) | 2.35 µM (inactive) | 16 µM (inactive) | 10.3 µM (inactive) | 4 µM (inactive) |
| COc1cc(C=C2C(C)=NN(c3cccc(Cl)c3)C23C(Cl)C(=O)N3c2nc3ccccc3s2)ccc1O (configuration not stated) | 19.2 µM (inactive) | 18.4 µM (inactive) | 16.8 µM (inactive) | 3.5 µM (inactive) | 31.4 µM (inactive) | 0.461 µM (active) | 5.85 µM (inactive) | 0.111 µM (active) | 6.7 µM (inactive) | 23.1 µM (inactive) | 17.2 µM (inactive) | 37.1 µM (inactive) | 19.9 µM (inactive) | 11.6 µM (inactive) | 4.53 µM (inactive) | 0.546 µM (active) | 7.26 µM (inactive) | 2.56 µM (inactive) |  | 10.7 µM (inactive) |
| COc1cc(O)c2c(c1)C(=O)C1=C(C2=O)C(O)C[C@@](C)(O)C1 (some centres not stated) | 0.684 µM (active) | 1.53 µM (inactive) | 1.16 µM (inactive) | 0.71 µM (active) | 3.38 µM (inactive) | 2.22 µM (inactive) | 2.47 µM (inactive) | 2.4 µM (inactive) | 1.1 µM (active) | 0.335 µM (active) |  | 2.58 µM (inactive) | 0.445 µM (active) | 0.871 µM (active) | 0.475 µM (active) | 0.451 µM (active) | 1.86 µM (inactive) | 1.47 µM (inactive) | 4.34 µM (inactive) | 0.441 µM (active) |
| O=C1NC2C(=CC(O)C(O)C2O)c2cc3c(cc21)OCO3 (configuration not stated) | 0.144 µM (active) | 0.459 µM (active) | 0.233 µM (active) | 0.244 µM (active) | 0.412 µM (active) | 0.109 µM (active) | 0.272 µM (active) | 0.109 µM (active) | 0.904 µM (active) | 0.695 µM (active) | 0.164 µM (active) | 0.582 µM (active) | 0.15 µM (active) | 0.244 µM (active) | 0.345 µM (active) | 0.108 µM (active) | 0.414 µM (active) | 0.415 µM (active) | 0.244 µM (active) | 0.335 µM (active) |
| Cc1n[nH]c(=O)n1/N=C\CC/C=N\n1c(C)n[nH]c1=O | > 100 µM (inactive) | > 100 µM (inactive) | > 100 µM (inactive) | > 100 µM (inactive) | > 100 µM (inactive) | > 100 µM (inactive) | > 100 µM (inactive) | > 100 µM (inactive) | > 100 µM (inactive) | > 100 µM (inactive) | > 100 µM (inactive) | > 100 µM (inactive) | > 100 µM (inactive) | > 100 µM (inactive) | > 100 µM (inactive) | > 100 µM (inactive) | > 100 µM (inactive) | > 100 µM (inactive) | > 100 µM (inactive) | > 100 µM (inactive) |
| C[C@]1(CO)[C@H]2CC[C@@]34C=C[C@@](CO)(CC[C@H]3[C@]2(C)CC[C@H]1O)C4 | 31.9 µM (inactive) | 40.4 µM (inactive) | 31.1 µM (inactive) | 64.4 µM (inactive) | 29.4 µM (inactive) | 8.93 µM (inactive) | 38.1 µM (inactive) | 24.3 µM (inactive) | > 100 µM (inactive) | 87.5 µM (inactive) | 12.9 µM (inactive) | 57.9 µM (inactive) | 56.9 µM (inactive) | 73.6 µM (inactive) | > 100 µM (inactive) | 37.4 µM (inactive) | 27 µM (inactive) | 38.3 µM (inactive) | 15 µM (inactive) | > 100 µM (inactive) |
| CN1CCN(c2nc3c(c(=O)n(C)c(=O)n3C)n2C)CC1 | > 100 µM (inactive) | > 100 µM (inactive) | > 100 µM (inactive) | > 100 µM (inactive) | > 100 µM (inactive) |  | > 100 µM (inactive) | > 100 µM (inactive) | > 100 µM (inactive) | > 100 µM (inactive) | > 100 µM (inactive) | > 100 µM (inactive) | > 100 µM (inactive) | > 100 µM (inactive) | > 100 µM (inactive) | > 100 µM (inactive) | > 100 µM (inactive) | > 100 µM (inactive) | > 100 µM (inactive) | > 100 µM (inactive) |
| OC1CN=C2c3ccccc3C(O)(c3ccc(Cl)cc3)N2C1 (configuration not stated) | > 100 µM (inactive) | 53.3 µM (inactive) | 77.4 µM (inactive) | 26.2 µM (inactive) | > 100 µM (inactive) | 31 µM (inactive) | 52.4 µM (inactive) | 38.1 µM (inactive) | 22 µM (inactive) |  | > 10 µM (inactive) |  | 35.6 µM (inactive) | 14.8 µM (inactive) | 32.9 µM (inactive) | 44.4 µM (inactive) | 50.7 µM (inactive) | 17.1 µM (inactive) | 60 µM (inactive) | > 100 µM (inactive) |
| CC(NC(=O)C(NC(=O)OC(C)(C)C)C(C)C)C(=O)N1CCCC1C(=O)NCC(=O)NC(C(=O)NCC(=O)OCc1ccccc1)C(C)C (configuration not stated) (Boc-VAPGVG-OBn; configuration not given here) | > 100 µM (inactive) | > 100 µM (inactive) | > 100 µM (inactive) | > 100 µM (inactive) | > 100 µM (inactive) | > 10 µM (inactive) |  | > 100 µM (inactive) | > 100 µM (inactive) | > 100 µM (inactive) |  | > 100 µM (inactive) | > 100 µM (inactive) | > 100 µM (inactive) | > 100 µM (inactive) | > 100 µM (inactive) | > 100 µM (inactive) | > 100 µM (inactive) | > 100 µM (inactive) | > 100 µM (inactive) |
